Source: patent EP3907227A1, “TRILOBINE DERIVATIVES AND THEIR USE THEREOF IN THE TREATMENT OF MALARIA” (Institut Pasteur, priority 2020, dated 2021)
Like-named read-outs stand apart in the source and are kept apart here.

How the values were obtained:
[1] = system: P. falciparum NF54 (drug-sensitive line); assay: Inhibition of proliferation of asynchronous asexual cultures (SYBR Green I based assay, 72h); format: cell-based; conditions: for activity at 5 µM: first screen at 5µM in duplicate, 72h, NF54, read-out: % survival @5uM
Procedure: Compounds were provided at a concentration of 10 mM in DMSO.
P. falciparum parasite are cultured using standard protocol (Trager and Jensen, Science 1976, 193(4254), 673-675). Briefly, parasites are cultured at 4% hematocrit (O+ human blood, Etablissement Français du Sang, France) in RPMI1640 complemented with 0.1% Albumax I, HEPES buffer, hypoxanthine, and gentamycin. They are incubated at 37°C under an atmosphere of 5% CO2 and 5% O2.
Compounds of the invention were assayed for a first screen at 5µM in duplicate against asynchronous asexual cultures of P. falciparum NF54 (drug-sensitive line) containing mostly rings (2% hematocrit. 0.5% starting parasitemia). Plates were incubated for 72h at 37°C under a reduced oxygen atmosphere. Parasite growth was assessed using the SYBR Green I based assay.
IC50 were determined using Graphpad Prism 6 software. Dihydroartemisinin (starting concentration 50nM) and DMSO were used as positive and negative controls.

Parasites = assay: Parasite reduction rate (time needed to kill the parasites); format: cell-based; conditions: survival curves, duration of treatment versus log viable parasites, Figure 3
Procedure: Parasites are incubated (see for example Sanz et al. PLoS ONE 7, e30949 (2012)) with a compound of the invention (or a reference) for different time-windows, washed, and diluted serially in 96-well plates in fresh red blood cells. Parasites are kept in culture for 3 to 4 weeks, when growth is assessed to evaluate the number of parasites that survive-correlated to the number of wells where growth is found. Survival curves are obtained by plotting the duration of treatment versus the log of the number of viable parasites (figure 3).

Strain 6320 = assay: Inhibition of proliferation of multi-resistant field isolates, asynchronous asexual stages, SYBR-green assay; format: cell-based, P. falciparum; conditions: Plasmodium falciparum, read-out: IC50 nM Strain 6320 mean*
Procedure: (§1) Compounds 63 and 84 were evaluated regarding the inhibition of the proliferation of multi-resistant field isolates adapted to culture. A panel of four Cambodian strains bearing different molecular markers of resistance were selected: 3D7: Laboratory strain, drug-sensitive, 5150: Cambodian isolate resistant to Chloroquine and Pyrimethamine, 6591: Cambodian isolate resistant to Chloroquine, Pyrimethamine, 5248: Cambodian isolate resistant to Chloroquine, Pyrimethamine, Mefloquine and Artemisinin, 6320: Cambodian isolate resistant to Chloroquine, Pyrimethamine, Piperaquine and Artemisinin.
(§2) IC50 were obtained against asynchronous asexual stages using SYBR-green assay after 72h of incubation with a serial dilution of the compounds. Data represents the mean and SD of 3 independent experiments ran in triplicates. Table 2 illustrates mean IC50 values and their standard deviation in nanomolar.

Strain 5150 = assay: as above; format: cell-based, P. falciparum; conditions: Plasmodium falciparum, read-out: IC50 nM Strain 5150 mean*
Procedure: as §1, §2

Strain 6591 = assay: as above; format: cell-based, P. falciparum; conditions: Plasmodium falciparum, read-out: IC50 nM Strain 6591 mean*
Procedure: as §1, §2

Strain 5248 = assay: as above; format: cell-based, P. falciparum; conditions: Plasmodium falciparum, read-out: IC50 nM Strain 5248 mean*
Procedure: as §1, §2

Lab. Strain 3D7 = assay: Inhibition of proliferation, asynchronous asexual stages, SYBR-green assay, laboratory strain; format: cell-based, P. falciparum; conditions: Plasmodium falciparum, read-out: IC50 nM Lab. Strain 3D7 mean*
Procedure: as §1, §2

[2] = Plasmodium falciparum, NF54, 72 h, SYBR Green I, read-out: Malaria CI50
[3] = Plasmodium falciparum, NF54, 72h, SYBR Green I, read-out: Malaria CI50

Structure (SMILES) | IC50 [1, 2] [nM] | activity at 5 µM ([1]; Plasmodium falciparum) [%] | also measured
CN1CCc2cc3c4cc2C1Cc1ccc(O)c(c1)Oc1ccc(cc1)CC1NCCc2cc(O)c(c(c21)O4)O3 (stereo not drawn) [Compound 122] |  |  | IC50 [1, 3]: 248 ± 58 nM
CCN(CC)CCCNC(=O)N1CCc2cc(OC)c3c4c2C1Cc1ccc(cc1)Oc1cc(ccc1OC)CC1c2cc(c(cc2CCN1C)O3)O4 (stereo not drawn) [Compound 89] | 428 ± 77 | 14.4 | 
COc1ccc2cc1Oc1ccc(cc1)CC1c3c(cc(OC)c4c3Oc3cc5c(cc3O4)CCN(C(=O)Nc3cccnc3)C5C2)CCN1C (stereo not drawn) [Compound 27] | 383 ± 173 | 12.7 | 
CN1CCc2cc3c4cc2C1Cc1ccc(O)c(c1)Oc1ccc(cc1)CC1c2c(cc(O)c(c2O4)O3)CCN1C (stereo not drawn) [Compound 110] |  |  | IC50 [1, 3]: 146 ± 39 nM
CCN(CC)CCCNC(=O)N1CCc2cc3c4cc2C1Cc1ccc(OC)c(c1)Oc1ccc(cc1)CC1c2c(cc(OC)c(c2O4)O3)CCN1C (stereo not drawn) [Compound 88] | 297 ± 31 | 14.7 | 
Oc1ccc2cc1Oc1ccc(cc1)CC1NCCc3cc(O)c4c(c31)Oc1cc3c(cc1O4)CCNC3C2 (stereo not drawn) [Compound 121] |  |  | Speed of action (parasite reduction rate) (Parasites): act as fast as dihydroartemisinin (DHA); IC50 [1, 3]: 115 ± 55 nM
COc1ccc2cc1Oc1ccc(cc1)C[C@@H]1NCCc3cc(OC)c4c(c31)Oc1cc3c(cc1O4)CCN[C@H]3C2 [Nortrilobine, reference compound] |  |  | IC50 ([1]; same conditions as Table 1 (NF54, 72h), read-out: mean IC50 +/- SD): 1220 ± 130 nM
Clc1ccc2c(N3CCN(CCCN4CCN(c5ccnc6cc(Cl)ccc56)CC4)CC3)ccnc2c1 [Piperaquine] |  |  | IC50 (Strain 6320; 72 h): > 200 nM; IC50 (Strain 5150; 72 h): 26 nM; IC50 (Strain 6591; 72 h): 34 nM; IC50 (Strain 5248; 72 h): 33 nM; IC50 (Lab. Strain 3D7; 3D7, 72 h): 41 nM
COc1ccc2cc1Oc1ccc(cc1)C[C@H]1c3c(cc(OC)c4c3Oc3cc5c(cc3O4)CCN(C)[C@H]5C2)CCN1C [Isotrilobine, reference compound] |  |  | IC50 ([1]; Plasmodium falciparum, NF54, 72 h, same conditions as Table 1 (NF54, 72h), read-out: mean IC50 +/- SD): 1780 nM
CCN(CC)CCCNC(=O)N1CCc2cc3c4cc2C1Cc1ccc(OC)c(c1)Oc1ccc(cc1)CC1c2c(cc(OC)c(c2O4)O3)CCN1C(=O)NCCCN(CC)CC (stereo not drawn) [Compound 87] | 441 ± 67 | 11.3 | 
COc1ccc2cc1Oc1ccc(cc1)CC1c3c(cc(OC)c4c3Oc3cc5c(cc3O4)CCN(C)C5C2)CCN1CCOCCOCCO (stereo not drawn) [Compound 42] | 437 ± 83 | 12.9 | 
COc1ccc2cc1Oc1ccc(cc1)CC1c3c(cc(OC)c4c3Oc3cc5c(cc3O4)CCN(C)C5C2)CCN1C(=O)NCc1ccccc1 (stereo not drawn) [Compound 28] | 504 ± 134 | 14.4 | 
COc1ccc2cc1Oc1ccc(cc1)CC1c3c(cc(OC)c4c3Oc3cc5c(cc3O4)CCN(C(=O)Nc3ccncc3)C5C2)CCN1C (stereo not drawn) [Compound 23] | 223 ± 58 | 13.4 | 
CCc1nc(N)nc(N)c1-c1ccc(Cl)cc1 [Pyrimethamine] |  |  | IC50 (Strain 6320; 72h, Cambodian isolate resistant to Chloroquine, Pyrimethamine, Piperaquine and Artemisinin, mean of three replicates): > 5000 nM; IC50 (Strain 5150; 72h, Cambodian isolate resistant to Chloroquine and Pyrimethamine, mean of three replicates): > 5000 nM; IC50 (Strain 6591; 72h, Cambodian isolate resistant to Chloroquine, Pyrimethamine, mean of three replicates): > 5000 nM; IC50 (Strain 5248; 72h, Cambodian isolate resistant to Chloroquine, Pyrimethamine, Mefloquine and Artemisinin, mean of three replicates): > 5000 nM; IC50 (Lab. Strain 3D7; 3D7, 72h, laboratory strain, drug-sensitive, mean of three replicates): 30 nM
CN(C)Cc1cc2cc(c1O)Oc1ccc(cc1)CC1c3c(c(CN(C)C)c(O)c4c3Oc3cc5c(cc3O4)CCN(C)C5C2)CCN1C (stereo not drawn) [Compound 123] | 283 ± 155 |  | 
COc1ccc2cc1Oc1ccc(cc1)CC1c3c(cc(OC)c4c3Oc3cc5c(cc3O4)CCN(C(=O)NCc3ccncc3)C5C2)CCN1C (stereo not drawn) [Compound 31] | 151 ± 21 | 14.8 | 
CCN(CC)CCCC(C)Nc1ccnc2cc(Cl)ccc12 (stereo not drawn) [Chloroquine] |  |  | IC50 (Strain 6320; 72 h): 109 nM; IC50 (Strain 5150; 72 h): 55 nM; IC50 (Strain 6591; 72 h): 64 nM; IC50 (Strain 5248; 72 h): 98 nM; IC50 (Lab. Strain 3D7; 3D7, 72 h): 13 nM

Second part, led by results:

IC50 [1, 2] [nM] | Structure (SMILES) | activity at 5 µM ([1]; Plasmodium falciparum) [%] | also measured
331 ± 29 | CCN(CC)CCOc1ccc2cc1Oc1ccc(cc1)CC1c3c(cc(OC)c4c3Oc3cc5c(cc3O4)CCN(C)C5C2)CCN1C (stereo not drawn) [Compound 78] | 12.6 | 
189 | COc1cc2c3c4c1Oc1cc5c(cc1O4)C(Cc1ccc(OCCCN4CCN(C)CC4)c(c1)Oc1ccc(cc1)CC3N(C)CC2)N(C)CC5 (stereo not drawn) [Compound 68] | 14.8 | 
227 ± 59 | COc1ccc2cc1Oc1ccc(cc1)CC1c3c(cc(OC)c4c3Oc3cc5c(cc3O4)CCN(C(=O)NCCN3CCN(C)CC3)C5C2)CCN1C (stereo not drawn) [Compound 60] | 15.4 | 
299 ± 25 | COc1cc2c3c4c1Oc1cc5c(cc1O4)C(Cc1ccc(OCC4CO4)c(c1)Oc1ccc(cc1)CC3N(C)CC2)N(C)CC5 (stereo not drawn) [Compound 73] | 15.8 | 
260 ± 34 | COc1cc2c3c4c1Oc1cc5c(cc1O4)C(Cc1ccc(OCCN(C)C)c(c1)Oc1ccc(cc1)CC3N(C)CC2)N(C)CC5 (stereo not drawn) [Compound 82] | 13.4 | 
153 ± 58 | CN(C)CCCOc1ccc2cc1Oc1ccc(cc1)CC1c3c(cc(O)c4c3Oc3cc5c(cc3O4)CCN(C)C5C2)CCN1C (stereo not drawn) [Compound 113] |  | 
352 ± 54 | COc1cc2c3c4c1Oc1cc5c(cc1O4)C(Cc1ccc(OCCC4CCCN4C)c(c1)Oc1ccc(cc1)CC3N(C)CC2)N(C)CC5 (stereo not drawn) [Compound 75] | 14.9 | 
195 ± 55 | COc1ccc2cc1Oc1ccc(cc1)CC1c3c(cc(OC)c4c3Oc3cc5c(cc3O4)CCN(C)C5C2)CCN1CC(O)CO (stereo not drawn) [Compound 48] | 11.8 | 
169 ± 10 | COc1ccc2cc1Oc1ccc(cc1)CC1c3c(cc(OC)c4c3Oc3cc5c(cc3O4)CCN(C)C5C2)CCN1CCCN(C)C (stereo not drawn) [Compound 46] | 14.2 | 
263 ± 50 | COc1cc2c3c4c1Oc1cc5c(cc1O4)C(Cc1ccc(OCCCN(C)C)c(c1)Oc1ccc(cc1)CC3NCC2)N(C)CC5 (stereo not drawn) [Compound 116] |  | 
297 ± 42 | COc1cc2c3c4c1Oc1cc5c(cc1O4)C(Cc1ccc(OC4CCCN(C)CC4)c(c1)Oc1ccc(cc1)CC3N(C)CC2)N(C)CC5 (stereo not drawn) [Compound 74] | 14.7 | 
438 ± 95 | COc1ccc2cc1Oc1ccc(cc1)CC1c3c(cc(OC)c4c3Oc3cc5c(cc3O4)CCN(CCOCCOCCO)C5C2)CCN1C (stereo not drawn) [Compound 43] | 13.3 | 
